The record followed here is patent US7807678B2, “Peptidomimetics of biologically active metallopeptides” (Palatin Technologies, Inc., priority 2001, dated 2010).

The structures appear in SMILES notation. Where two headings read alike, the source gives them in different places. Non-standard residues stand in square brackets, D forms with d. Residues, ends and D or L forms follow the SMILES beside them. *: point of attachment. Hyp = O=C(O)[CH]1C[CH](O)CN1; Nle = CCCC[CH](N)C(=O)O; NH(CH2)3NH2 = NCCCN*; Bn = c1ccc(C*)cc1

Assay [1] deals with T1, MC1-R (B-16 mouse melanoma cells) (Mus musculus, UniProt Q01727).
T1 construct: B-16 mouse melanoma cells (containing MC1-R); endogenous in cells; host or cells: B-16 mouse melanoma cells
T1 sequence (Q01727 whole entry): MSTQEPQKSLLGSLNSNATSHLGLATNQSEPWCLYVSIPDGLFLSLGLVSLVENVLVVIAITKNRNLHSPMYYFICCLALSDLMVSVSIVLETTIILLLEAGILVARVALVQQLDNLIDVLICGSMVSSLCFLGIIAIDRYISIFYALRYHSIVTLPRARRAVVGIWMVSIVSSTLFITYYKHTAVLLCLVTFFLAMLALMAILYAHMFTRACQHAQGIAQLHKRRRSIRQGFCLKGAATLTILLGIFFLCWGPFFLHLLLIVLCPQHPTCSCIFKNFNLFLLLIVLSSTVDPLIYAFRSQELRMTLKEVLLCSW
In words: Competitive inhibition binding assay, 125I-NDP-α-MSH, MC1-R. Particulars: for Inhibition at 1 μM MC1-R: 1 μM compound, inhibition of 125I-NDP-α-MSH binding, mean of triplicates, results less than 0% reported as 0%. The essentials: (§1)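 Membranes from hMC3-R, hMC4-R or hMC5-R cells, or B-16 mouse melanoma cells (MC1-R), were incubated 90 min at room temperature with 0.4 nM 125I-NDP-α-MSH in HEPES pH 7.2 with Mg2+/Ca2+/K+, and test compound generally at 1 μM. Filter-bound radioactivity was gamma counted. Specific binding was defined with 1 μM α-MSH; triplicate means.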

Assay [2] addresses T1, MC1-R (B-16 mouse melanoma cells). Briefly: Ki determination by the method of Example 4, MC1-R. It counts as binding. As for the experimental part: (§2) The Ki (nM) of certain peptidomimetics were determined, as was the agonist/antagonist status with respect to MC4-R, Functional evaluation of compounds at melanocortin receptors was performed by measuring the accumulation of intracellular cAMP in HEK-293 cells expressing MC3-R, MC4-R or MC5-R, and in B-16 mouse melanoma cells (containing MC1-R). Antagonistic activity was determined by measuring the inhibition of α-MSH-induced cAMP levels following exposure to the compounds. Cells, suspended in Earle's Balanced Salt Solution containing 10 mM HEPES, pH 7.5, 5 mM MgCl2, 1 mM glutamine, 0.1% albumin and 0.6 mM 3-isobutyl-1-methyl-xanthine, a phosphodiesterase inhibitor, were plated in 96 well plates at a density of 0.5×10^5 cells per well. Cells were incubated with the test compounds in the presence or absence of α-MSH for 1 hour at 37° C. cAMP levels were measured by EIA (Amersham) in the cell lysates. Data analysis and EC50 values were determined using nonlinear regression analysis with Prism Graph-Pad software.

The target in assay [3] is T2, MC3-R (Homo sapiens, UniProt P41968). Briefly: Competitive inhibition binding assay, 125I-NDP-α-MSH, MC3-R. Details: expressed in transfected cells. Particulars: for Inhibition at 1 μM MC3-R: 1 μM compound, inhibition of 125I-NDP-α-MSH binding, mean of triplicates, results less than 0% reported as 0%. The gist of the method: as §1
T2 sequence (P41968 whole entry): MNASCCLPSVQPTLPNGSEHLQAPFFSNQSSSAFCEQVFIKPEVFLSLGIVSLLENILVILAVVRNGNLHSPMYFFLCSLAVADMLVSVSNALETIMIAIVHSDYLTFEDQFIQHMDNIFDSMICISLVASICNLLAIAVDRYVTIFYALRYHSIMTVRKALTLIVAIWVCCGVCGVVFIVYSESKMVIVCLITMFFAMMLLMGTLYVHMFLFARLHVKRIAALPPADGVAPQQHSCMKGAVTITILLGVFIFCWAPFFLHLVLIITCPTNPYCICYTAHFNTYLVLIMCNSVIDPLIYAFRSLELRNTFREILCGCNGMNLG
Assay [4] has as its target T3, MC4-R (Homo sapiens, UniProt P32245). Briefly: Competitive inhibition binding assay, 125I-NDP-α-MSH, MC4-R. Also noted: expressed in transfected cells. Particulars: for Inhibition at 1 μM MC4-R: 1 μM compound, inhibition of 125I-NDP-α-MSH binding, mean of triplicates, results less than 0% reported as 0%. The essentials:
as §1

Assay [5] deals with T4, MC5-R (Homo sapiens, UniProt P33032). Briefly: Competitive inhibition binding assay, 125I-NDP-α-MSH, MC5-R. Particulars: for Inhibition at 1 μM MC5-R: 1 μM compound, inhibition of 125I-NDP-α-MSH binding, mean of triplicates, results less than 0% reported as 0%. Also noted: expressed in transfected cells. The gist of the method: as §1
T4 sequence (P33032 whole entry): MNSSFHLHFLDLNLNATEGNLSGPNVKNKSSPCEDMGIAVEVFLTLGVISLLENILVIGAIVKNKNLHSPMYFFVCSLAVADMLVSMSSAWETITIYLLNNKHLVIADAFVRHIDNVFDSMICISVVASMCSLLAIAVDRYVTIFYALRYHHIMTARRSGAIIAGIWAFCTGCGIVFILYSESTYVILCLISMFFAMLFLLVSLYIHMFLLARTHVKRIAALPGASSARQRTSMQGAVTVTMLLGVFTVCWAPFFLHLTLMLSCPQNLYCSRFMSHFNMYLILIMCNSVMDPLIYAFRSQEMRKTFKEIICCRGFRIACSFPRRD
Assay [6] concerns the target T2, MC3-R. In words: Ki determination by the method of Example 4, MC3-R. Details: expressed in transfected cells; host or cells: HEK-293. It counts as binding. As for the experimental part: as §2
Assay [7] concerns the target T3, MC4-R. Briefly: Ki determination by the method of Example 4, MC4-R. It counts as binding. Details: expressed in transfected cells; host or cells: HEK-293. On the procedure: as §2
Assay [8] deals with T4, MC5-R. Briefly: Ki determination by the method of Example 4, MC5-R. It counts as binding. Details: expressed in transfected cells; host or cells: HEK-293. On the procedure:
as §2

Assay [9] deals with T1, MC1-R (B-16 mouse melanoma cells). Briefly: cAMP assay for agonist/antagonist status, MC1-R. The format is cell-based. As for the experimental part: as §2
(cAMP levels reflect the balance of adenylyl cyclase and phosphodiesterase activity.)

In assay [10] the target is T5, MC4-R (HEK-293 cells) (Homo sapiens, UniProt P32245).
T5 construct: expressed in transfected cells; host or cells: HEK-293
T5 sequence (P32245 whole entry): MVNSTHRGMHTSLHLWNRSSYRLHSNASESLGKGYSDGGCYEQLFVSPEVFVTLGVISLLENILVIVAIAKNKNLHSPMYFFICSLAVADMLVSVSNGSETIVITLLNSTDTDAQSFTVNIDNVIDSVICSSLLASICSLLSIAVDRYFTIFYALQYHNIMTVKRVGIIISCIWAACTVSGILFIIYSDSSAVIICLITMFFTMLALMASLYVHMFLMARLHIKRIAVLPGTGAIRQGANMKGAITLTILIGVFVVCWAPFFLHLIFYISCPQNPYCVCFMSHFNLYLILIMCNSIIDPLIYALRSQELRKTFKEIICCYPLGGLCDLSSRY
In words: cAMP assay for agonist/antagonist status, MC4-R. It counts as cell-based. As for the experimental part: as §2

Assay [11] deals with T6, MC5-R (HEK-293 cells) (Homo sapiens, UniProt P33032).
T6 construct: expressed in transfected cells; host or cells: HEK-293
T6 sequence (P33032 whole entry): as the sequence (P33032 whole entry) above
In words: cAMP assay for agonist/antagonist status, MC5-R. The format is cell-based. On the procedure:
as §2

The mark [12] stands for this setting: bound in μM, read-out: Ki MC1-R.
[13] abbreviates: bound in μM, read-out: Ki MC3-R.
[14] abbreviates: bound in μM, read-out: Ki MC4-R.
[15] abbreviates: bound in μM, read-out: Ki MC5-R.

T3 sequence (P32245 whole entry): as the sequence (P32245 whole entry) above

The term inhibition denotes the change of the read-out against control, counted positive when it falls. Higher therefore signals a response far below the control. Broadly, the Ki is a measure of affinity in units of concentration, obtained from inhibition or displacement. Regarding `N=C(N)NCCCC1C(=O)N(CCc2c[nH]c3ccccc23)CCN1C(=O)C(Cc1ccc(Cl)cc1)NC(=O)C(COCc1ccccc1)NC(=O)CCCCCCN` (stereo not drawn) [Example 17], the inhibition at 1 µM in [1] was found to be 96%; in assay [3], 97%; in [4], 99%; in assay [5], 94%. The inhibition constant (Ki) was 4 nM in assay [2] (read-out: Ki (nM) MC1-R), 17 nM in assay [6] (read-out: Ki (nM) MC3-R), 2 nM in assay [7] (read-out: Ki (nM) MC4-R) and 32 nM in assay [8] (read-out: Ki (nM) MC5-R).
With `N=C(N)NCCC[C@H]1C(=O)N2C(CC[C@@H]2COc2ccc3ccccc3c2)N1C(=O)[C@@H](Cc1ccc(Cl)cc1Cl)NC(=O)[C@@H]1CC[C@H](c2ccccc2)N1` (stereo partly drawn) [Example 115], the inhibition constant (Ki) in [2] (setting [12]) was over 1000 nM; in assay [6] (setting [13]), over 1000 nM; in assay [7] (read-out: Ki (nM) MC4-R), 12 nM; in assay [8] (read-out: Ki (nM) MC5-R) it was 99 nM. Further, the inhibition at 1 µM in assay [3] worked out at 43%; in assay [4], 97%; in assay [5], 86%.
As for `NCCCNC(=O)C1CC(OCc2ccccc2)CN1C(=O)C(Cc1ccc(Cl)cc1)NC(=O)C1Cc2ccccc2CN1` (stereo not drawn) [Example 145], the Ki in assay [2] (setting [12]), in [6] (setting [13]) and in assay [7] (setting [14]) was over 1000 nM each time.
As a reminder, the Inhibition is the share of the control response that was lost under treatment. Read a high Inhibition as a strong effect. For the compound `N=C(N)NCCC[C@H]1C(=O)N2C(CC[C@@H]2COc2ccc3ccccc3c2)N1C(=O)[C@@H](Cc1ccc(Cl)cc1Cl)NC(=O)[C@@H]1Cc2ccccc2CN1` (stereo partly drawn) [Example 112], the “Inhibition at 1 μM MC1-R” value in assay [1] amounted to 75%. The Ki is 111 nM in assay [2] (read-out: Ki (nM) MC1-R), 42 nM in [6] (read-out: Ki (nM) MC3-R), 1 nM in [7] (read-out: Ki (nM) MC4-R) and 26 nM in [8] (read-out: Ki (nM) MC5-R). In addition, in assay [9], the “agonist/antagonist status as to MC1-R” value was “inactive”. Also, the “agonist/antagonist status as to MC4-R” value in [10] was “antagonist”. The “agonist/antagonist status as to MC5-R” value in assay [11] is “antagonist”. Besides, the “Inhibition at 1 μM MC3-R” value in assay [3] came out at 88%. In addition, the “Inhibition at 1 μM MC4-R” value in [4] amounted to 100%. Besides, in [5], the “Inhibition at 1 μM MC5-R” value was determined as 96%.
In the case of `NCCCNC(=O)[C@@H]1C[C@@H](OCc2ccccc2)CN1C(=O)[C@@H](Cc1ccc(Cl)cc1)NC(=O)[C@H]1Cc2ccccc2CN1` [Example 146], the inhibition constant Ki in [2] (setting [12]), in assay [6] (setting [13]), in [7] (setting [14]) and in assay [8] (setting [15]) was over 1000 nM throughout.
Turning to `N=C(N)NCCCC1C(=O)N2C(COc3ccc4ccccc4c3)CCC2N1C(=O)C(Cc1ccccc1)NC(=O)C(N)Cc1cnc[nH]1` (stereo not drawn) [Example 97], the inhibition constant Ki in assay [2] (read-out: Ki (nM) MC1-R) is 1 nM; in [6] (setting [13]), over 1000 nM; in assay [7] (read-out: Ki (nM) MC4-R) it was 226 nM; in assay [8] (setting [15]), over 1000 nM.
For the compound `NCCCNC(=O)[C@@H]1C[C@@H](OCc2ccccc2)CN1C(=O)[C@@H](Cc1ccccc1)NC(=O)[C@H]1Cc2ccccc2CN1` [Example 148], the Ki in assay [2] (setting [12]), in [6] (setting [13]), in assay [7] (setting [14]) and in assay [8] (setting [15]) was over 1000 nM each time.
Take `NC(COCc1ccccc1)C(=O)NC(Cc1ccc(Cl)cc1Cl)C(=O)N1CCN(CCc2ccc3ccccc3c2)C(=O)C1CCCNC1=NCCN1` (stereo not drawn) [Example 48]: the inhibition at 1 µM was determined as 63% in [1], 60% in assay [3], 99% in assay [4] and 75% in [5]. Further, the inhibitory constant (Ki) in [2] (setting [12]) is over 1000 nM; in [6] (setting [13]), over 1000 nM; in [7] (read-out: Ki (nM) MC4-R), 4 nM; in [8] (read-out: Ki (nM) MC5-R), 104 nM.
Turning to `[2H]N[C@@H](Cc1cnc[nH]1)C(=O)N[C@@H](Cc1ccccc1)C(=O)N1C2CC[C@H](COc3ccc4ccccc4c3)N2C(=O)[C@@H]1CCCCN` (stereo partly drawn) [Example 180], the Ki in [2] (read-out: Ki (nM) MC1-R) was 8 nM; in assay [6] (setting [13]), over 1000 nM; in assay [7] (setting [14]), over 1000 nM; in assay [8] (setting [15]) it was over 1000 nM. Moreover, the “agonist/antagonist status as to MC1-R” value is recorded as “agonist” in [9] and “potent MCR-1 agonist” in assay [9] (listed as Compound 2).
As for `N=C(N)NCCCC1C(=O)N(CCc2c[nH]c3ccccc23)CCN1C(=O)C(Cc1ccc(Cl)cc1)NC(=O)C1Cc2ccccc2CN1` (stereo not drawn) [Example 14], the inhibition at 1 µM in assay [1] was determined as 96%; in assay [3], 88%; in assay [4], 99%; in assay [5], 89%. In addition, the Ki in assay [2] (read-out: Ki (nM) MC1-R) is 3 nM; in [6] (read-out: Ki (nM) MC3-R), 77 nM; in assay [7] (read-out: Ki (nM) MC4-R), 2 nM; in assay [8] (read-out: Ki (nM) MC5-R), 52 nM.
Regarding `NCCCC[C@H]1C(=O)N(CCc2ccc3ccccc3c2)CCN1C(=O)[C@@H](Cc1ccc(Cl)cc1Cl)NC(=O)[C@@H]1CC[C@H](c2ccccc2)N1` [Example 26], the inhibition constant Ki in assay [2] (setting [12]) was over 1000 nM; in assay [6] (setting [13]) it was over 1000 nM; in [7] (read-out: Ki (nM) MC4-R), 50 nM; in assay [8] (read-out: Ki (nM) MC5-R), 789 nM.
Consider `N=C(N)NCCC[C@H]1C(=O)N2C(CC[C@@H]2COc2ccc3ccccc3c2)N1C(=O)[C@@H](Cc1ccccc1Cl)NC(=O)[C@@H]1C[C@@H](OCc2ccccc2)CN1` (stereo partly drawn) [Example 100], for which the “Inhibition at 1 μM MC1-R” value in assay [1] is recorded as 54%. Besides, the inhibition constant (Ki) in assay [2] (read-out: Ki (nM) MC1-R) is 244 nM; in assay [6] (read-out: Ki (nM) MC3-R) it was 854 nM; in assay [7] (read-out: Ki (nM) MC4-R), 42 nM; in assay [8] (read-out: Ki (nM) MC5-R), 284 nM. The “agonist/antagonist status as to MC1-R” value in [9] is given as “agonist”. For the same compound, in assay [10], the “agonist/antagonist status as to MC4-R” value is listed as “agonist”. For the same compound, the “Inhibition at 1 μM MC3-R” value in assay [3] is on record as 40%. In assay [4], the “Inhibition at 1 μM MC4-R” value is recorded as 95%. The “Inhibition at 1 μM MC5-R” value in assay [5] was 93%.
As for `NCCCNC(=O)C1CC(OCc2ccccc2)CN1C(=O)C(Cc1ccccc1)NC(=O)C1Cc2ccccc2CN1` (stereo not drawn) [Example 147], the Ki in assay [2] (setting [12]), in assay [6] (setting [13]), in [7] (setting [14]) and in assay [8] (setting [15]) was over 1000 nM each time.
Turning to `CCCCC(N)C(=O)NC(C)C(=O)NC(Cc1cnc[nH]1)C(=O)NC(Cc1ccccc1)C(=O)N1CC(OCc2ccccc2)CC1C(=O)NCCCN` (stereo not drawn) [Example 134] (H-[Nle]AHF[Hyp](Bn)-{NH(CH2)3NH2}; configuration not given here), the Ki in [6] (setting [13]), in assay [7] (setting [14]) and in [8] (setting [15]) was over 1000 nM throughout.
